Reference: patent US7935706B2, “Nitrogen-containing heterocycle derivatives substituted with cyclic group” (Shionogi & Co., Ltd., priority 2006, dated 2011)
Where two headings read alike, the source gives them in different places.

Assays:
NR1/NR2B receptor = molecular target: T1, NR1/NR2B receptor (Rattus norvegicus, UniProt P35439+Q00960); assay: Test of binding with NMDA receptor (NR1/NR2B receptor): competition with [3H]-Ifenprodil on rat cerebral cortex membrane specimen
T1 construct: from tissue; host or cells: rat cerebral cortex membranes (male Slc: Wistar rat)
Method: Test of Binding with NMDR Receptor (NR1/NR2B Receptor)
Using Ifenprodil which is an antagonist specific for a NR1/NR2B subtype receptor as a ligand, an experiment of competition between a receptor and a test compound was performed.
Using a male Slc: Wistar rat as an animal, a brain was isolated after decapitation, and a cerebral cortex was fractionated. The cerebral cortex was homogenized with a 20-fold amount of an ice-cooled 50 mM Tris/HCl buffer (pH 7.4), and the homogenate was centrifuged at 4° C. and 27,500×g for 10 minutes. The resulting precipitate was suspended in the same buffer, and this was again centrifuged. This operation was repeated for three times, the resulting precipitate was suspended in a buffer, and this was stored at −80° C. Immediately before an experiment, the frozen suspension was thawed at room temperature, this was centrifuged at 4° C. and 27,500×g for 10 minutes, and the resulting precipitate was suspended in a buffer. Further, the suspension was diluted 10-fold with a buffer, and this was used as a membrane specimen in an experiment. In a binding experiment, to 470 μl of the membrane specimen were added […] of each of test compounds having different concentrations, 10 μl of a labeled ligand [^3H]-Ifenprodil and 10 μl GBR-12909, followed by incubation at an ice temperature for 120 minutes. A concentration of [^3H]-Ifenprodil of the labeled ligand was finally 5 nM, and a concentration of GBR-12909 was finally 3 μM. For measuring a total binding amount, DMSO as a solvent was used and, for measuring a non-specific binding amount, 100 μM Ifenprodil was used. GBR-12909 was added in order to block binding of [^3H]-Ifenprodil to non-polyamine-sensitive site. After incubation, a bound formand a free foramwere separated using Whatman GF/C filter (manufactured by Whatman), and the filter was washed with 2.5 ml ice-cooled buffer four times. The filter was immersed in liquid scintillation (Cryasol I, manufactured by Nacalai tesque), and radioactivity (dpm) was measured with a liquid scintillation counter. From a measured value, a binding inhibition rate (%) was obtained by the following equation, and a dose at which binding is inhibited 50% (IC50) was calculated. A formula of GBR-12909 (vanoxerine) is shown below.
Binding inhibition rate(%)=100−[(binding amount in the presence of test compound−non-specific binding amount)/(total binding amount−non-specific binding amount)]×100

[1] = molecular target: T2, NMDA receptor (NR1 subunit and NR2B subunit) (Mus musculus, UniProt P35438+Q01097); assay: Measurement of expression of NMDA receptor and Ca ion influx amount (glutamic acid/glycine-induced, HEK293 cell co-expressing NR1 and NR2B subunits, Fluo-3/AM); type: cell-based
T2 construct: expressed in transfected cells; host or cells: HEK293 cells, transient transfection with pcDNA3.1 plasmids
Method: Measurement of Expression of NMDA Receptor and Ca Ion Influx Amount
A complementary DNA (cDNA) of a mouse NMDA receptor subunit was transiently introduced into a HEK293 cell and, after 1 day from introduction, change in a glutamic acid/glycine-induced intracelluar Ca amount was measured using a Ca ion reactive fluorescent coloring matter.
The HEK293 cell was cultured, and passaged using a modified Dulbecco's Eagle medium (DMEM, low glucose).
The HEK293 cell (20,000/well) was seeded on a 96-well plate, a NR1 subunit and a NR2B subunit of the NMDA receptor incorporated into the pcDNA3.1 plasmid were transiently introduced into a cell, and the subunits were co-expressed. An introduction amount of a DNA was 0.025 μg in the case of the NR1 subunit, and 0.075 μg in the case of NR2B subunit per well. For the cell after introduction, cell death was inhibited using 50 μM of the NMDA receptor antagonist MK-801.
For adjusting a test compound and washing a cell, Krebs/Ringer/Hepes buffer (KRH, Ca: 5 mM) was used.
After 1 day from introduction, the NMDA receptor antagonist MK-801 was washed out using the KRH buffer, and a Ca ion indication fluorescent coloring matter Fluo-3/AM was made to be taken into the cell. Ca ion influx was induced with 20 μM glutamic acid/2 μM glycine. Change in a fluorescent amount due to Ca ion influx into the cell was measured at excitation of 480 nm using a fluorescent imaging system FDSS 3000.
From a measured value of the test compound, a Ca ion influx inhibition rate (%) was obtained by the following equation, and a dose at which influx is inhibited 50% (IC50) was calculated.
Ca ion influx inhibition rate(%)=100−[(fluorescent amount in the presence of test compound−background fluorescent amount)/(total fluorescent amount−background fluorescent)]×100

[2] = [3H]-Ifenprodil 5 nM, GBR-12909 3 μM, rat cerebral cortex membranes, ice temperature 120 minutes, read-out: NR2B (IC50 μM)
[3] = same binding test, read-out: IC50 (binding with NR1/NR2B receptor)
[4] = same Ca ion influx test, read-out: IC50 (Ca ion influx inhibition)
[5] = Ca ion influx induced with 20 μM glutamic acid/2 μM glycine, HEK293 cell with mouse NR1/NR2B, read-out: Ca2+ IC50

T1 sequence (Q00960 27-1482, other chains not shown): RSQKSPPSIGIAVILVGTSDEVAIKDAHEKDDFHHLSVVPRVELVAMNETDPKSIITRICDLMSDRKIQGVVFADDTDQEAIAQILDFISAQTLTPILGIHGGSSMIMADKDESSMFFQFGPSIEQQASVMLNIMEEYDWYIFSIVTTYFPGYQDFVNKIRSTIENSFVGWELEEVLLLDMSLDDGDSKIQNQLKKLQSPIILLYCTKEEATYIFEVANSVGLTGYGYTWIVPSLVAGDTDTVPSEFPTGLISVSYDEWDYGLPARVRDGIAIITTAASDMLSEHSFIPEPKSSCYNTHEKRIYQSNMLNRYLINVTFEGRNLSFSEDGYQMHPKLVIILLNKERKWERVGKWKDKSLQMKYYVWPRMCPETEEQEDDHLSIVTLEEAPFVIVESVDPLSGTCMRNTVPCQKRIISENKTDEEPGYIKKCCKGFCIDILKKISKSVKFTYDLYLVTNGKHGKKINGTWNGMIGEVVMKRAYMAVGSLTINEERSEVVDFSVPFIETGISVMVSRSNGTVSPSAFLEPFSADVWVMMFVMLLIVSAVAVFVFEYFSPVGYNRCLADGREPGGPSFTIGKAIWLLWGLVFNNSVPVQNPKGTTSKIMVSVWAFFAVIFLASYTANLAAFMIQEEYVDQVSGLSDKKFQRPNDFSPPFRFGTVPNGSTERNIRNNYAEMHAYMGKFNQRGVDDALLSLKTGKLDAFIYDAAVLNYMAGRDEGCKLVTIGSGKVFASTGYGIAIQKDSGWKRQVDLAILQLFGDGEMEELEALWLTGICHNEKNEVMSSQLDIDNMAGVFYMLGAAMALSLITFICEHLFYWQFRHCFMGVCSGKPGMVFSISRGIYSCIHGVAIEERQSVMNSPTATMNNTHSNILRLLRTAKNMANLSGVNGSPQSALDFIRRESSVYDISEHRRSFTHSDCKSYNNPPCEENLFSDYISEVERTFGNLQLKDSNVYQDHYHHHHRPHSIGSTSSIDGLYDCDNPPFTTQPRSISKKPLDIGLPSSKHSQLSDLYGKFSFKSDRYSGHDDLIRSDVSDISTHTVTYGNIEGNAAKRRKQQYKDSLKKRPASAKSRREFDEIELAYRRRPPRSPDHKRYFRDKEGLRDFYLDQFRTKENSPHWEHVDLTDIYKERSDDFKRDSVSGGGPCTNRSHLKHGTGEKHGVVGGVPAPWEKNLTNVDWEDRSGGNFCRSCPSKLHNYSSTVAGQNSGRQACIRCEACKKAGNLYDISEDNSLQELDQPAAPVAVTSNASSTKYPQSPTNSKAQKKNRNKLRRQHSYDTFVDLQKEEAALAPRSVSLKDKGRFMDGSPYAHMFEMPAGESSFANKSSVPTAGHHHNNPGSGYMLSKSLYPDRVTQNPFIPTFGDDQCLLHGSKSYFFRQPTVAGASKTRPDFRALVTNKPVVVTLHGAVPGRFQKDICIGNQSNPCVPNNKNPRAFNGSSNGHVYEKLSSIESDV
T2 sequence (Q01097 27-1482, other chains not shown): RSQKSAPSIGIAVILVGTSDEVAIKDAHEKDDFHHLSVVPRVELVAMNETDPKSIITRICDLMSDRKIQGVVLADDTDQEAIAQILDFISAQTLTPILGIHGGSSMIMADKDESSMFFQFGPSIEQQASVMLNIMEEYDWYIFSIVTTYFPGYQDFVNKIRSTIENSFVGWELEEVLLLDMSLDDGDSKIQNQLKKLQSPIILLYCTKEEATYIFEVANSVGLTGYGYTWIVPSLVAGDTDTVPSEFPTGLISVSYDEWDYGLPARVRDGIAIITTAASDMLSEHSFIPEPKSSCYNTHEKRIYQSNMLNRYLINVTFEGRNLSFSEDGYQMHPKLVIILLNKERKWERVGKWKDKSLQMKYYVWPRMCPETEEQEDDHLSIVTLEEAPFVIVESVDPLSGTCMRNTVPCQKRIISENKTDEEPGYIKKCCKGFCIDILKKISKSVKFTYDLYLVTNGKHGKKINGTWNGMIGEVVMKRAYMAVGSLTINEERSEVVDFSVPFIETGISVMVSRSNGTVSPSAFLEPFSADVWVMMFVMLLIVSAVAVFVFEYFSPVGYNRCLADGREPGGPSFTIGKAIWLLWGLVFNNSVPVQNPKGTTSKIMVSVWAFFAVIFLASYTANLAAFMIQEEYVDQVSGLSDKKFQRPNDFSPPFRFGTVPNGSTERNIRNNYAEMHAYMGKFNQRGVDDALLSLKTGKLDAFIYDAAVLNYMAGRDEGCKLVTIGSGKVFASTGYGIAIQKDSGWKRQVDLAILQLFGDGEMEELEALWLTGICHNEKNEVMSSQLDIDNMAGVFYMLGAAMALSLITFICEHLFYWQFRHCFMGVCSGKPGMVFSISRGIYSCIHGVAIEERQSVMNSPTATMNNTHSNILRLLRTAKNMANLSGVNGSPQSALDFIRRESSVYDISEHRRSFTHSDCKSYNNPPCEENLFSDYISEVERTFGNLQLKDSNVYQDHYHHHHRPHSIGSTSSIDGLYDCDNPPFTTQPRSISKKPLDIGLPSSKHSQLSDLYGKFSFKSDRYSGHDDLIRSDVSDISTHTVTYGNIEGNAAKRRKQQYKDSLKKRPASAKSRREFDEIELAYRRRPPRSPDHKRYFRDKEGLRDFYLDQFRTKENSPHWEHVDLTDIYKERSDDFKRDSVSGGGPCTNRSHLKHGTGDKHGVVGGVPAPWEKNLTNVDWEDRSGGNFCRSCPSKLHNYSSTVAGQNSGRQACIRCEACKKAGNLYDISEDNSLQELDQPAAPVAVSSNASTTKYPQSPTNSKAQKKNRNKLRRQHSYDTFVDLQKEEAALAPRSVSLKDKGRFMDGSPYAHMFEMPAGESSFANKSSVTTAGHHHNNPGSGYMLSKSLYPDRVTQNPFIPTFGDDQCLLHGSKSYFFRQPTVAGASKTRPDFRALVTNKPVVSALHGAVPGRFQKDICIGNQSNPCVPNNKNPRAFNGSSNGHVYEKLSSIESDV

Structure (SMILES) | IC50 (NR1/NR2B receptor; [2]) [µM] | IC50 (NR1/NR2B receptor; [3]) [µM] | IC50 [1, 4] [nM] | IC50 [1, 5] [nM]
C[C@@H]1CN(c2ccc(C(F)(F)F)cn2)CCN1C(=O)C(=O)Nc1ccc2[nH]c(=O)oc2c1 [Compound I-227] |  | ≤ 0.1 | ≤ 100 | 
O=C(Nc1cnc2[nH]c(=O)oc2c1)C(=O)N1CCCN(c2ccc(Cl)c(F)c2)CC1 [Compound I-155] |  |  |  | 53
O=C(CC1CCN(c2ccc(OC(F)F)cc2)CC1)Nc1ccc2[nH]c(=O)oc2c1 [Compound I-239] |  | ≤ 0.1 |  | 
O=C(Nc1ccc2[nH]c(=O)oc2c1)C(=O)C1CCN(c2ccc(C(F)(F)F)cc2)CC1 [Compound I-26] |  |  |  | 48
O=C(CN1CCN(c2ccc(C(F)(F)F)cc2)CC1)Nc1ccc2[nH]c(=O)oc2c1 [Compound I-235] |  | ≤ 0.1 |  | 
COc1ccc(N2CCC(=CC(=O)Nc3ccc4[nH]c(=O)oc4c3)CC2)cc1F [Compound I-238] |  | ≤ 0.1 | ≤ 100 | 
O=C(CC1(O)CCN(c2ccc(Cl)cc2)CC1)Nc1ccc2[nH]c(=O)oc2c1 [Compound I-34] |  |  |  | 20
O=C(NCCC1CCN(c2ccc(Cl)c(Cl)c2)CC1)c1ccc(=O)[nH]c1 [Compound I-196] | 0.023 |  |  | 15
O=C(CC1(O)CCN(c2ccc(C(F)(F)F)cc2)CC1)Nc1ccc2[nH]c(=O)oc2c1 [Compound I-30] | 0.077 |  |  | 4
C[C@H]1CN(C(=O)C(=O)Nc2ccc3[nH]c(=O)oc3c2)CCN1c1ccc(Cl)cc1 [Compound I-176] |  |  | ≤ 100 | 
O=C(C=C1CCN(c2cc(C(F)(F)F)ccn2)CC1)Nc1ccc2[nH]c(=O)oc2c1 [Compound I-41] |  |  |  | 92
O=C(CC1CCN(c2ccc(C(F)(F)F)cc2)CC1)Nc1ccc2[nH]c(=O)oc2c1 [Compound I-8] |  |  |  | 48
O=C(CC1(O)CCN(c2ccc(Cl)c(Cl)c2)CC1)Nc1ccc2[nH]c(=O)oc2c1 [Compound I-187] | 0.054 |  |  | 14
O=C(NCCC1CCN(c2ccc(OC(F)(F)F)cc2)CC1)c1ccc(=O)[nH]c1 [Compound I-230] |  | ≤ 0.1 | ≤ 100 | 
O=C(NCC1CCN(c2ccc(OC(F)(F)F)cc2)CC1)c1ccc2[nH]c(=O)oc2c1 [Compound I-122] |  |  |  | 24

More lines, now with the values ahead:

IC50 (NR1/NR2B receptor; [2]) [µM] | IC50 (NR1/NR2B receptor; [3]) [µM] | IC50 [1, 4] [nM] | IC50 [1, 5] [nM] | Structure (SMILES)
0.073 |  |  |  | O=C(Nc1ccc2[nH]c(=O)oc2c1)C(=O)N1CCN(c2ccc(C(F)(F)F)nc2)CC1 [Compound I-198]
0.026 |  | ≤ 100 |  | O=C(Nc1ccc2[nH]c(=O)sc2c1)C(=O)N1CCN(c2ccc(Cl)cc2)CC1 [Compound I-90]
 |  |  | 87 | O=C(Nc1ccc2[nH]c(=O)sc2c1)C(=O)N1CCN(c2ccc(F)cc2)CC1 [Compound I-89]
 | ≤ 0.1 | ≤ 100 |  | O=C(Nc1ccc2[nH]c(=O)oc2c1)C(=O)N1CCN(c2ccc(OC(F)(F)F)cc2)CC1 [Compound I-211]
 | ≤ 0.1 | ≤ 100 |  | O=C(Nc1ccc2[nH]c(=O)oc2c1)C(=O)N1CCN(c2cccc(Cl)c2)CC1 [Compound I-86]
 | ≤ 0.1 |  | 11 | O=C(Nc1ccc2[nH]c(=O)[nH]c2c1)C(=O)N1CCN(c2ccc(Cl)cc2)CC1 [Compound I-84]
0.044 |  |  | 4 | O=C(Nc1ccc2[nH]c(=O)oc2c1)C(=O)N1CCCN(c2ccc(Cl)c(F)c2)CC1 [Compound I-154]
0.015 |  |  | 8 | O=C(Nc1ccc2[nH]c(=O)oc2c1)C(=O)N1CCN(c2ccc(Cl)cc2)CC1 [Compound I-73]
 |  |  | 51 | O=C(Nc1cnc2[nH]c(=O)oc2c1)C(=O)N1CCN(c2ccc(Br)cc2)CC1 [Compound I-94]
0.074 |  |  | 10 | O=C(Nc1ccc2[nH]c(=O)oc2c1)C(=O)N1CCCN(c2ccc(Cl)cc2)CC1 [Compound I-100]
